Test results published in PubChem BioAssay (NCI).
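Growth conditions: 96-well plates. Treatment: test compound, 48 hours, 5 concentrations. Analysis: linear interpolation between bracketing concentrations; unreached endpoints set to highest concentration. At the GI50, growth is halved. TGI: concentration producing complete growth inhibition.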

System: MDA-MB-468 breast
Experiment: NCI anticancer screen, dose series, 48 h

| Compound | GI50 [nM] | TGI [nM] |
| --- | --- | --- |
| COc1ccc(NC([Se])=NC23CC4CC(CC(C4)C2)C3)cc1 | 1350 | 3420 |
| CC(C)C[C@H](NC(=O)Cn1ccc(NCc2ccccc2)cc1=O)B(O)O | 370 | 1780 |
| C[C@@H](O)[C@H](NC(=O)N[C@@H](CC(N)=O)c1nc([C@@H](N)CO)no1)C(=O)O | > 100000 | > 100000 |
| NC1CCC(Nc2nc(NCc3ccc(-c4ccccc4O)nc3)c3ncn(C4CCCC4)c3n2)CC1 (stereo not drawn) | < 10 | 12.9 |
| C=C(C)[C@@H]1CC[C@]2(C(=O)O)CC[C@]3(C)[C@H](CC[C@@H]4[C@@]5(C)CCC(NC(=O)c6cccc(OC(C)=O)c6OC(C)=O)C(C)(C)[C@@H]5CC[C@]43C)[C@@H]12 (stereo partly drawn) | 424 | 2890 |
| N#CC1=C(N)Oc2c(ccc3ccccc23)C1c1ccccc1 (stereo not drawn) | 75.1 | 1790 |
| COc1cc(-c2ccc(-c3ccc(C(=N)N)nc3)s2)cc(OC)c1OC | 1740 | 4410 |
| CC(=Nc1ccccc1)C1=C(O)C(Cc2ccc(O)cc2)NC1=O (stereo not drawn) | 24.4 | 87.4 |
| C/C(=N\Nc1cc(C)c2ccccc2n1)c1ccccn1 | 66.2 | 749 |
| CCOC(=O)NC1C2CC(=O)OC(O2)C1OC(C)=O (stereo not drawn) | > 100000 | > 100000 |
| CCCN(CCC)c1ccc(/C=C/c2ccc3cc(OCC)ccc3n2)cc1 | 80100 | > 100000 |
| COc1cc(N2CCC(N3CCN(C)CC3)CC2)ccc1Nc1ncnc(Nc2ccccc2S(=O)(=O)C(C)C)n1 | 4780 | 20300 |
| C=CCn1c(SCC(=O)Nc2ccc(C(=O)/C=C/c3cc(OC)c(OC)c(OC)c3)cc2)nnc1-c1c[nH]c2ccccc12 | 1770 | 4210 |
| CCN(Cc1ccccc1)c1ccc(CO)c(Cl)c1 | 20.2 | 55.9 |
| Cc1c2c(cc[n+]1Cc1ccccc1)c1ccc(OCc3ccccc3)cc1n2Cc1ccccc1 | 191 | 915 |
| CC(=O)N1C/C(=C/c2ccc(Cl)cc2)C(=O)/C(=C/c2ccc(Cl)cc2)C1 | 469 | 1760 |

| Compound | GI50 [nM] | TGI [nM] |
| --- | --- | --- |
| Cc1nc2sc(C(=O)Nc3cccc4ccccc34)c(N)c2cc1C(O)c1ccccc1 (stereo not drawn) | 35.1 | 15200 |
| Cc1ccc2c(-c3ccnc(Nc4ccccc4)n3)c(-c3ccc(F)cc3)nn2n1 | 961 | 6350 |
| C=C1C(=O)O[C@H]2[C@H]1CC/C(COC(=O)C(=O)c1cn(C)c3ccc(Cl)cc13)=C\CC[C@@]1(C)O[C@@H]21 | 248 | 637 |
| COc1ccc(-c2cc(-c3ccc(Cl)cc3)nc(SCCCC(=O)NO)n2)cc1 | 1490 | 4340 |
| Cc1ccc(Cc2cnc(NC(=O)/C=C/c3cccc(C)c3)s2)cc1 | 309 | – |
| O=S(=O)(NCCCNc1nccc(-c2c(-c3ccc(F)c(O)c3)nc3sccn23)n1)c1ccc(F)cc1 | 2620 | 7350 |
| COc1cc2c(cc1OC)-c1ccc3cc4c(cc3c1N(CCCn1ccnc1)C2)OCO4 | 397 | 2730 |
| COc1cc2ncn(-c3cc(O[C@@H](C)c4ccccc4Cl)c(C(N)=O)s3)c2cc1OC | 120 | 1610 |
| CS(=O)(=O)CCNCc1ccc(-c2ccc3ncnc(Nc4ccc(OCc5ccccc5)c(Br)c4)c3c2)o1 | 82 | 1000 |
| O=C1NC(=O)C(c2ccccc2Cl)=C1Nc1cc(Cl)c(O)c(Cl)c1 | 6290 | > 21400 |
| O=C1CC(=O)N(C(=O)c2nn(-c3ccc(Cl)cc3)cc2O)N1 | 716 | > 66500 |
| COc1cccc(/C=C/[N+](=O)[O-])c1 | 2300 | 5210 |
| CCC(=O)Nc1ccccc1C#C/C=C\C#Cc1ccccc1SC | 3120 | > 100000 |
| C=C1C(=O)O[C@H]2[C@H]1CC/C(COC(=O)c1cc3ccccc3o1)=C\CC[C@@]1(C)O[C@@H]21 | 1500 | 3720 |
| C=C(CN1CCN(c2cccc(C(F)(F)F)n2)CC1)c1ccc(C(=O)Nc2ccccc2N)cc1 | 1190 | 7280 |
| C=C(NC(=O)C(=C)NC(=O)c1csc(C2=NC3c4csc(n4)C4NC(=O)c5csc(n5)C(C(C)(O)C(C)O)NC(=O)C5CSC(=N5)C(=CC)NC(=O)C(C(C)O)NC(=O)c5csc(n5)C3(CC2)NC(=O)C(C)NC(=O)C(=C)NC(=O)C(C)NC(=O)C(C(C)CC)NC2C=Cc3c(C(C)O)cc(nc3C2O)C(=O)OC4C)n1)C(N)=O (stereo not drawn) | 1580 | 3630 |
